In patent publication US20220387403A1, “COMPOUNDS, COMPOSITIONS AND METHODS FOR TREATING NASH, NAFLD, AND OBESITY” (CVI Pharmaceuticals Limited, priority 2019, published 2022):

Experiments:
[1] = tested on: Male Wister rats; experiment: Lipid lowering effects in Wister rats under a high fat and high cholesterol diet; assay type: in vivo, rat; settings: 75 mg/kg daily oral
Method: Male Wister rats were used as an animal model to examine the in vivo effects of (14R, 13S)-CRDL in plasma lipid levels.
In one experiment, 18 Wister male rats under a high fat and high cholesterol diet were divided into 2 groups. One group was given (14R, 13S)-CRDL hydrochloride salt orally at a daily dose of 75 mg/kg by an orogastric tube for 4 weeks, and the control group received daily treatment of equal amount of vehicle (0.1 M sodium phosphate, pH 3.5). Serum lipid levels were measured weekly.
At the end of treatment, Rats were sacrificed and blood and sera were collected to measure several critical parameters for liver function and kidney function. […] Kidney function and blood glucose level were not changed by the treatment.

[2] = tested on: Male Wister rats; experiment: Food intake and body weight in Wister rats under a high fat and high cholesterol diet; assay type: in vivo, rat; settings: 4-week treatment
Method: The food intake and body weight gains were measured every week during the 4-week treatment period. […] In the first week, the amount of food consumed was decreased in CRDL-treated group. […] The ability of CRDL to activate AMPK signaling pathway to increase energy expenditure and to reduce fat accumulation likely contributes to this weight reducing effect.

Kidney function and blood glucose level ([1]; end of 4-week treatment): not changed
SMILES: COc1cc2c(cc1OC)[C@H]1[C@@H](C)c3ccc(OC)c(OC)c3CN1CC2 [CRDL, corydaline]
adverse effects during the entire treatment ([1]; 4 weeks): No any adverse effects | serum levels of AST and ALT vs control group ([1]; end of 4-week treatment): statistically lower | LDL-c level, of control ([1]; hydrochloride salt, 4 weeks): 25.6% | LDL-c level, of day 0 ([1]; hydrochloride salt, 4 weeks): 22.4% | TC compared to the control group ([1]; hydrochloride salt, 4 weeks): 33.8% | TC, of the pretreatment level ([1]; hydrochloride salt, 4 weeks): 33.0% | TG level, of the control ([1]; hydrochloride salt, 4 weeks): 29% | TG level, of the pretreatment level (day 0) ([1]; hydrochloride salt, 4 weeks): 27% | body weight [2]: maintained constant
